Reference: PubChem BioAssay (NCI)
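Exposure lasted 48 hours, with cells grown in 96-well plates and compounds tested at five concentrations. TGI is the concentration that stops growth completely.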

Key:
Experiment in all cases: NCI-60 cell line screen, 48 h
786-0 renal = test system: 786-0 renal
A498 renal = test system: A498 renal
A549 NSCLC = test system: A549 NSCLC
ACHN renal = test system: ACHN renal
BT-549 breast = test system: BT-549 breast
CAKI-1 renal = test system: CAKI-1 renal
CCRF-CEM leukemia = test system: CCRF-CEM leukemia
COLO 205 colon = test system: COLO 205 colon
DU-145 prostate = test system: DU-145 prostate
EKVX NSCLC = test system: EKVX NSCLC
HCT-116 colon = test system: HCT-116 colon
HL-60(TB) leukemia = test system: HL-60(TB) leukemia
HOP-62 NSCLC = test system: HOP-62 NSCLC
HOP-92 NSCLC = test system: HOP-92 NSCLC
HS 578T breast = test system: HS 578T breast
HT29 colon = test system: HT29 colon
IGROV1 ovarian = test system: IGROV1 ovarian
K-562 leukemia = test system: K-562 leukemia
KM12 colon = test system: KM12 colon
LOX IMVI melanoma = test system: LOX IMVI melanoma
M14 melanoma = test system: M14 melanoma
MALME-3M melanoma = test system: MALME-3M melanoma
MCF7 breast = test system: MCF7 breast
MDA-MB-231 breast = test system: MDA-MB-231 breast
MDA-MB-435 = test system: MDA-MB-435
MDA-N = test system: MDA-N
MOLT-4 leukemia = test system: MOLT-4 leukemia
NCI-H226 lung = test system: NCI-H226 lung
NCI-H23 lung = test system: NCI-H23 lung
NCI-H522 lung = test system: NCI-H522 lung
NCI/ADR-RES ovarian = test system: NCI/ADR-RES ovarian
OVCAR-3 ovarian = test system: OVCAR-3 ovarian
OVCAR-4 ovarian = test system: OVCAR-4 ovarian
OVCAR-5 ovarian = test system: OVCAR-5 ovarian
OVCAR-8 ovarian = test system: OVCAR-8 ovarian
PC-3 prostate = test system: PC-3 prostate
RPMI-8226 leukemia = test system: RPMI-8226 leukemia
RXF 393 renal = test system: RXF 393 renal
SF-268 CNS = test system: SF-268 CNS
SF-295 CNS = test system: SF-295 CNS
SF-539 CNS = test system: SF-539 CNS
SK-MEL-2 melanoma = test system: SK-MEL-2 melanoma
SK-MEL-28 melanoma = test system: SK-MEL-28 melanoma
SK-MEL-5 melanoma = test system: SK-MEL-5 melanoma
SN12C renal = test system: SN12C renal
SNB-19 CNS = test system: SNB-19 CNS
SNB-75 CNS = test system: SNB-75 CNS
SR leukemia = test system: SR leukemia
SW-620 colon = test system: SW-620 colon
T-47D breast = test system: T-47D breast
TK-10 renal = test system: TK-10 renal
U251 CNS = test system: U251 CNS
UACC-257 melanoma = test system: UACC-257 melanoma
UACC-62 melanoma = test system: UACC-62 melanoma
UO-31 renal = test system: UO-31 renal
HCT-15 colon = test system: HCT-15 colon
NCI-H460 lung = test system: NCI-H460 lung
SK-OV-3 ovarian = test system: SK-OV-3 ovarian

In the case of Cc1cn(C2CC(Br)C(COC(c3ccccc3)(c3ccccc3)c3ccccc3)O2)c(=O)[nH]c1=O (configuration not stated), the TGI (786-0 renal) is reported as 27.4 µM, the TGI (A498 renal) is reported as 29.9 µM and the TGI (A549 NSCLC) is reported as 23.8 µM. It also gave a TGI (ACHN renal) of 26.8 µM, a TGI (BT-549 breast) of 24.4 µM and a TGI (CAKI-1 renal) of 29.2 µM. It also gave a TGI (CCRF-CEM leukemia) of 24.1 µM, a TGI (COLO 205 colon) of 27.1 µM and a TGI (DU-145 prostate) of 27.7 µM. For the same compound, the TGI (EKVX NSCLC) was 28.9 µM, the TGI (HCT-116 colon) was 20.5 µM and the TGI (HL-60(TB) leukemia) was over 100 µM. It also gave a TGI (HOP-62 NSCLC) of 31 µM, a TGI (HOP-92 NSCLC) of 24.6 µM and a TGI (HS 578T breast) of 32.8 µM. It also gave a TGI (HT29 colon) of 23.4 µM, a TGI (IGROV1 ovarian) of 27.9 µM and a TGI (K-562 leukemia) of over 100 µM. For the same compound, the TGI (KM12 colon) was 19.4 µM, the TGI (LOX IMVI melanoma) was 24.4 µM and the TGI (M14 melanoma) was 26.7 µM. The TGI (MALME-3M melanoma) was 32.4 µM, the TGI (MCF7 breast) was 22.4 µM and the TGI (MDA-MB-231 breast) was 33.5 µM. The TGI (MDA-MB-435) was 30.1 µM, the TGI (MDA-N) was 28.2 µM and the TGI (MOLT-4 leukemia) was 28.8 µM. The TGI (NCI-H226 lung) was 34.2 µM, the TGI (NCI-H23 lung) was 20 µM and the TGI (NCI-H522 lung) was 19.8 µM. The TGI (NCI/ADR-RES ovarian) was 28.9 µM, the TGI (OVCAR-3 ovarian) was 25.2 µM and the TGI (OVCAR-4 ovarian) was 25.8 µM. It also gave a TGI (OVCAR-5 ovarian) of 30.4 µM, a TGI (OVCAR-8 ovarian) of 23.2 µM and a TGI (PC-3 prostate) of 17.7 µM. It also gave a TGI (RPMI-8226 leukemia) of 20.6 µM, a TGI (RXF 393 renal) of 23.5 µM and a TGI (SF-268 CNS) of 28.4 µM. For the same compound, the TGI (SF-295 CNS) was 21.7 µM, the TGI (SF-539 CNS) was 31.6 µM and the TGI (SK-MEL-2 melanoma) was 28.7 µM. The TGI (SK-MEL-28 melanoma) was 30.3 µM, the TGI (SK-MEL-5 melanoma) was 25.5 µM and the TGI (SN12C renal) was 27.8 µM. For the same compound, the TGI (SNB-19 CNS) was 29.9 µM, the TGI (SNB-75 CNS) was 24.3 µM and the TGI (SR leukemia) was 23.1 µM. It also gave a TGI (SW-620 colon) of 28.5 µM, a TGI (T-47D breast) of 26.3 µM and a TGI (TK-10 renal) of 28 µM. It also gave a TGI (U251 CNS) of 24.9 µM, a TGI (UACC-257 melanoma) of 29.8 µM and a TGI (UACC-62 melanoma) of 24.8 µM. For the same compound, the TGI (UO-31 renal) was 19.5 µM.

NS(=O)(=O)c1ccc(N=Nc2ncccc2O)cc1 gave a TGI (786-0 renal) of over 100 µM, a TGI (A498 renal) of over 100 µM and a TGI (A549 NSCLC) of over 100 µM. The TGI (ACHN renal) was over 100 µM, the TGI (BT-549 breast) was over 100 µM and the TGI (CAKI-1 renal) was over 100 µM. It also gave a TGI (COLO 205 colon) of over 100 µM, a TGI (DU-145 prostate) of over 100 µM and a TGI (EKVX NSCLC) of over 100 µM. It also gave a TGI (HCT-116 colon) of over 100 µM, a TGI (HCT-15 colon) of over 100 µM and a TGI (HL-60(TB) leukemia) of over 100 µM. For the same compound, the TGI (HOP-62 NSCLC) was over 100 µM, the TGI (HOP-92 NSCLC) was over 100 µM and the TGI (HS 578T breast) was over 100 µM. It also gave a TGI (HT29 colon) of over 100 µM, a TGI (IGROV1 ovarian) of over 100 µM and a TGI (K-562 leukemia) of over 100 µM. For the same compound, the TGI (KM12 colon) was over 100 µM, the TGI (LOX IMVI melanoma) was over 100 µM and the TGI (M14 melanoma) was over 100 µM. For the same compound, the TGI (MALME-3M melanoma) was over 100 µM, the TGI (MCF7 breast) was over 100 µM and the TGI (MDA-MB-231 breast) was over 100 µM. It also gave a TGI (MDA-MB-435) of over 100 µM, a TGI (MDA-N) of over 100 µM and a TGI (MOLT-4 leukemia) of 87.8 µM. The TGI (NCI-H226 lung) was over 100 µM, the TGI (NCI-H23 lung) was over 100 µM and the TGI (NCI-H460 lung) was over 100 µM. It also gave a TGI (NCI-H522 lung) of over 100 µM, a TGI (NCI/ADR-RES ovarian) of over 100 µM and a TGI (OVCAR-3 ovarian) of over 100 µM. It also gave a TGI (OVCAR-4 ovarian) of over 100 µM, a TGI (OVCAR-5 ovarian) of over 100 µM and a TGI (OVCAR-8 ovarian) of over 100 µM. It also gave a TGI (PC-3 prostate) of over 100 µM, a TGI (RPMI-8226 leukemia) of over 100 µM and a TGI (RXF 393 renal) of over 100 µM. It also gave a TGI (SF-268 CNS) of over 100 µM, a TGI (SF-295 CNS) of over 100 µM and a TGI (SF-539 CNS) of over 100 µM. It also gave a TGI (SK-MEL-2 melanoma) of over 100 µM, a TGI (SK-MEL-28 melanoma) of over 100 µM and a TGI (SK-MEL-5 melanoma) of over 100 µM. For the same compound, the TGI (SK-OV-3 ovarian) was over 100 µM, the TGI (SN12C renal) was over 100 µM and the TGI (SNB-19 CNS) was over 100 µM. It also gave a TGI (SNB-75 CNS) of over 100 µM, a TGI (SR leukemia) of 71.9 µM and a TGI (SW-620 colon) of over 100 µM. It also gave a TGI (T-47D breast) of over 100 µM, a TGI (TK-10 renal) of over 100 µM and a TGI (U251 CNS) of over 100 µM. It also gave a TGI (UACC-257 melanoma) of over 100 µM, a TGI (UACC-62 melanoma) of over 100 µM and a TGI (UO-31 renal) of over 100 µM.
